How the values were obtained:
NKCC1 [1] = assay: 86Rb uptake in HT-29 cells; format: cell-based, human; details: HT-29 cells, 2, 4, 8, and 12 h after ALD
Protocol: Cell culture and buffers. […] Arch Oral Biol 52: 411-416, 2007). […] J Cell Sci 112: […], 1999, Epple, et al., Early aldosterone effect in distal colon by transcriptional regulation of ENaC subunits. Am J Physiol Gastrointest Liver Physiol 278: […] Am J Physiol Cell Physiol 305: […]-[…], 2013). HT-29 cells were grown in DMEM media (Invitrogen, Carlsbad Calif.) with 10% FBS and antibiotics. Cells were grown in a humidified 95%/5% CO2 incubator at 37° C. Experiments were performed at 70-80% confluence. ^86Rb uptake. Similar to previous studies of NKCC1 activity (Gagnon & Delpire, Molecular determinants of hyperosmotically activated NKCC1-mediated K_/K_exchange. J Physiol 588: 3385-3396, 2010), cells were plated on six-well dishes and incubated at 37° C./5% CO2 until confluent. For the uptake, cells were first washed twice with 1 ml of isosmotic saline (140 mM NaCl, 5 mM KCl, 2 mM CaCl2, 0.8 mM MgSO4, 5 mM glucose, 5 mM HEPES buffered to pH 7.4, and 300.5 mosM). […] After a 20-min uptake, the radioactive solution was aspirated, and the cells were washed three times with 1 ml of ice-cold solution, lysed for 1 h with 500 μl of 0.25 N NaOH, and neutralized with 250 μl of glacial acetic acid. ^86Rb tracer activity was measured by using 150 μl of lysate for γ-scintillation counting. […]

NKCC1 [2] = assay: Tl-uptake in single HT-29 cells (FluxOR) for NKCC1 activity; format: cell-based, human; details: 24 single HT-29 cells per condition
Description: Tl-uptake in single cells for the detection of NKCC1 activity. To measure NKCC1 activity, we used a fluorescence assay to assess cotransporter activity in single isolated HT-29 cells (Delpire & Austin, Kinase regulation of Na^+—K^+-2Cl^− cotransport in primary afferent neurons. J Physiol 588: 3365-3373, 2010, Geng, et al., The Ste20 kinases SPAK and OSR1 regulate NKCC1 function in sensory neurons. J Biol Chem 284: 14020-14028, 2009, Weaver, et al., A thallium-sensitive, fluorescence-based assay for detecting and characterizing potassium channel modulators in mammalian cells. J Biomol Screen 9: 671-677, 2004). HT-29 cells were incubated at 37° C./5% CO2 for 24 h before use. […] For the detection of fluorescence, the preincubation solution was removed, and the cells were treated with a 340.5 mosM hypertonic stimulus solution containing the following (in mM): (2.8 TISO4, 140 NaCl, 2 KCl, 2 CaCl2, 0.8 MgSO4, 5 glucose, 20 HEPES, 27 sucrose, 1 ouabain, and 2.7 probenecid) in the presence or absence of 20 μM bumetanide. […] FluxOR fluorescence (excitation/emission: 488/525 nm) was recorded after 90 s upon addition of 2.8 mM […] to the external medium. […]
Influence of ALD on NKCC1 transporter activity. […] To test this hypothesis, a more efficient and sensitive method, fluorescence Ion flux assays was adopted to measure NKCC1 transporter activity. […]

caspase-3 = assay: Caspase-3 expression in modiolar tissue samples; format: in vivo, mouse; details: ALD-treated middle-aged mice vs control middle-aged and young mice
Protocol: During treatment, blood pressures were measured for the mice at 2 and 4 months after start of treatment. […] Death was confirmed by terminal phlebotomy/exsanguinations and perfusion. Cell lysates were collected and subject to western blot and RT-PCT analysis. The cells were placed in RIPA buffer and sonicated. Protein concentration was measured using the Bradford method. Proteins were separated by SDS-PAGE. The antibodies used for western blot were: anti-iNOS, nNOS and caspase-3 antibodies (Cell Signaling, Cambridge, Mass.). Total cellular RNA was extracted using the RNeasy Plus Mini Kit (74134). For RT-PCR, 10 ng of total cellular RNA was reverse transcribed and complementary DNA was amplified, using the Enhanced Avian HS RT-PCR-100 Kit (Sigma, HSRT20).

## C[C@]12CCC(=O)C=C1CC[C@@H]1[C@@H]2[C@@H](O)C[C@]2(C=O)[C@@H](C(=O)CO)CC[C@@H]12 [ALD, aldosterone]
NKCC1 [1]
  NKCC1 protein activity (86Rb uptake): upregulated NKCC1 protein activity
NKCC1 [2]
  bumetanide-sensitive Tl+ uptake fluorescence: marked increase in fluorescence
caspase-3
  caspase-3 levels in modiolar tissue: reduced caspase-3 to levels below even the young mice samples

Source: patent US10342806B2, “Hormone treatment for age-related hearing loss-presbycusis” (priority 2014, dated 2019)
